Results on 24 molecules are retold here after patent US11319299B2, “Substituted carboxamides as inhibitors of WDR5 protein-protein binding” (PROPELLON THERAPEUTICS INC., priority 2016, dated 2022).

As a reminder, the Kd is a measure of binding affinity in units of concentration.

The target of this assay is WDR5 (Homo sapiens (Human), UniProt P61964). As to the kind of experiment: Surface Plasmon Resonance (SPR) assay, KD and residence time. The format is binding. Conditions: surface plasmon resonance (SPR); read-out: WDR5 binding affinity (KD). On the technique in general: In SPR one partner is held on a chip, and binding of the other changes the refractive index at the surface.
For `C[C@@H]1CN(c2cc(F)c(C3=CCCN(c4ncccn4)C3)cc2NC(=O)c2c[nH]c(=O)cc2C(F)F)C[C@H](C)N1C` [Example 644, 4-(difluoromethyl)-N-[4-fluoro-5-(1-pyrimidin-2-yl-3,6-dihydro-2H-pyridin-5-yl)-2-[(3R,5S)-3,4,5-trimethylpiperazin-1-yl]phenyl]-6-oxo-1H-pyridine-3-carboxamide], the Kd stood at 1.32 nM. The same measure for `COc1cnc(N2CCC=C(c3cc(NC(=O)c4c[nH]c(=O)cc4C(F)F)c(N4C[C@@H](C)N(C)[C@@H](C)C4)cc3F)C2)nc1` [Example 645, 4-(difluoromethyl)-N-[4-fluoro-5-[1-(5-methoxypyrimidin-2-yl)-3,6-dihydro-2H-pyridin-5-yl]-2-[(3R,5S)-3,4,5-trimethylpiperazin-1-yl]phenyl]-6-oxo-1H-pyridine-3-carboxamide]: 1.41 nM; for `C[C@@H]1CN(c2cc(F)c(C3=CCN(c4ncc(C=O)cn4)CC3)cc2NC(=O)c2c[nH]c(=O)cc2C(F)F)C[C@H](C)N1C` [Example 646, 4-(difluoromethyl)-N-[4-fluoro-5-[1-(5-formylpyrimidin-2-yl)-3,6-dihydro-2H-pyridin-4-yl]-2-[(3R,5S)-3,4,5-trimethylpiperazin-1-yl]phenyl]-6-oxo-1H-pyridine-3-carboxamide]: 1.41 nM. Then `COc1cc(N2CC=C(c3cc(NC(=O)c4c[nH]c(=O)cc4C(F)F)c(N4C[C@@H](C)N(C)[C@@H](C)C4)cc3F)CC2)ncn1` [Example 647, 4-(difluoromethyl)-N-[4-fluoro-5-[1-(6-methoxypyrimidin-4-yl)-3,6-dihydro-2H-pyridin-4-yl]-2-[(3R,5S)-3,4,5-trimethylpiperazin-1-yl]phenyl]-6-oxo-1H-pyridine-3-carboxamide], with 1.59 nM; and `CCOC(=O)N1CCC=C(c2cc(NC(=O)c3c[nH]c(=O)cc3C(F)F)c(N3C[C@@H](C)N(C)[C@@H](C)C3)cc2F)C1` [Example 648, Ethyl 5-[5-[[4-(difluoromethyl)-6-oxo-1H-pyridine-3-carbonyl]amino]-2-fluoro-4-[(3R,5S)-3,4,5-trimethylpiperazin-1-yl]phenyl]-3,6-dihydro-2H-pyridine-1-carboxylate], with 1.97 nM. Consider `C[C@@H]1CN(c2cc(F)c(C3=CCN(C(=O)OC4(C)CCC4)CC3)cc2NC(=O)c2c[nH]c(=O)cc2C(F)F)C[C@H](C)N1C` [Example 651, (1-methylcyclobutyl) 4-[5-[[4-(difluoromethyl)-6-oxo-1H-pyridine-3-carbonyl]amino]-2-fluoro-4-[(3R,5S)-3,4,5-trimethylpiperazin-1-yl]phenyl]-3,6-dihydro-2H-pyridine-1-carboxylate], for which the Kd was determined as 0.897 nM. As for `C[C@@H]1CN(c2cc(F)c(-c3cc(F)c(C(N)=O)c(F)c3)cc2NC(=O)c2ccc(F)cc2C(F)(F)F)C[C@H](C)N1C` [Example 656, 2,6-difluoro-4-[2-fluoro-5-[[4-fluoro-2-(trifluoromethyl)benzoyl]amino]-4-[(3R,5S)-3,4,5-trimethylpiperazin-1-yl]phenyl]benzamide], the Kd was 5.44 nM. Then `C[C@@H]1CN(c2cc(F)c(-c3cc(F)c(C(N)=O)c(F)c3)cc2NC(=O)c2c[nH]c(=O)cc2C(F)(F)F)C[C@H](C)N1C` [Example 658, N-[5-(4-carbamoyl-3,5-difluorophenyl)-4-fluoro-2-[(3R,5S)-3,4,5-trimethylpiperazin-1-yl]phenyl]-6-oxo-4-(trifluoromethyl)-1H-pyridine-3-carboxamide], with 1.88 nM; and `C[C@@H]1CN(c2cc(F)c(-c3cc(F)c(C(N)=O)c(F)c3)cc2NC(=O)c2c[nH]c(=O)cc2C(F)F)C[C@H](C)N1C` [Example 659, N-[5-(4-carbamoyl-3,5-difluorophenyl)-4-fluoro-2-[(3R,5S)-3,4,5-trimethylpiperazin-1-yl]phenyl]-4-(difluoromethyl)-6-oxo-1H-pyridine-3-carboxamide], with 1.93 nM; and `CC(C)N1CCN(c2ncc(-c3cc(NC(=O)c4cn(C)c(=O)cc4C(F)(F)F)c(N4C[C@@H](C)N(C)[C@@H](C)C4)cc3F)cn2)CC1` [Example 661, N-[4-fluoro-5-[2-(4-propan-2-ylpiperazin-1-yl)pyrimidin-5-yl]-2-[(3R,5S)-3,4,5-trimethylpiperazin-1-yl]phenyl]-1-methyl-6-oxo-4-(trifluoromethyl)pyridine-3-carboxamide], with 3.23 nM. Turning to `C[C@@H]1CN(c2cc(F)c(-c3cnc(N4CCOC(C)(C)C4)nc3)cc2NC(=O)c2cn(C)c(=O)cc2C(F)(F)F)C[C@H](C)N1C` [Example 662, N-[5-[2-(2,2-dimethylmorpholin-4-yl)pyrimidin-5-yl]-4-fluoro-2-[(3R,5S)-3,4,5-trimethylpiperazin-1-yl]phenyl]-1-methyl-6-oxo-4-(trifluoromethyl)pyridine-3-carboxamide], the Kd turned out to be 2.29 nM.

For `C[C@@H]1CN(c2cc(F)c(-c3ccc(C(=O)NC(C)(C)CC(C)(C)C)c(F)c3F)cc2NC(=O)c2ccc(F)cc2C(F)(F)F)C[C@H](C)N1C` [Example 665, 2,3-difluoro-4-[2-fluoro-5-[[4-fluoro-2-(trifluoromethyl)benzoyl]amino]-4-[(3R,5S)-3,4,5-trimethylpiperazin-1-yl]phenyl]-N-(2,4,4-trimethylpentan-2-yl)benzamide], the Kd stood at 151 nM.

On to `C[C@@H]1CN(c2cc(F)c(-c3ccc(C(N)=O)c(F)c3F)cc2NC(=O)c2ccc(F)cc2C(F)(F)F)C[C@H](C)N1C` [Example 667, 2,3-difluoro-4-[2-fluoro-5-[[4-fluoro-2-(trifluoromethyl)benzoyl]amino]-4-[(3R,5S)-3,4,5-trimethylpiperazin-1-yl]phenyl]benzamide], for which the Kd amounted to 9.65 nM. Then `C[C@@H]1CN(c2cc(F)c(-c3ccc(C(=O)NC(C)(C)CC(C)(C)C)c(F)c3F)cc2NC(=O)c2c[nH]c(=O)cc2C(F)(F)F)C[C@H](C)N1C` [Example 669, N-[5-[2,3-difluoro-4-(2,4,4-trimethylpentan-2-ylcarbamoyl)phenyl]-4-fluoro-2-[(3R,5S)-3,4,5-trimethylpiperazin-1-yl]phenyl]-6-oxo-4-(trifluoromethyl)-1H-pyridine-3-carboxamide], with 9.71 nM; and `C[C@@H]1CN(c2cc(F)c(-c3ccc(C(N)=O)c(F)c3F)cc2NC(=O)c2c[nH]c(=O)cc2C(F)(F)F)C[C@H](C)N1C` [Example 670, N-[5-(4-carbamoyl-2,3-difluorophenyl)-4-fluoro-2-[(3R,5S)-3,4,5-trimethylpiperazin-1-yl]phenyl]-6-oxo-4-(trifluoromethyl)-1H-pyridine-3-carboxamide], with 3.85 nM.

On to `CC(C)OC(=O)N1CCC=C(c2cc(NC(=O)c3c[nH]c(=O)cc3C(F)(F)F)c(N3C[C@@H](C)N(C)[C@@H](C)C3)cc2F)CC1` [Example 674, Propan-2-yl 4-[2-fluoro-5-[[6-oxo-4-(trifluoromethyl)-1H-pyridine-3-carbonyl]amino]-4-[(3R,5S)-3,4,5-trimethylpiperazin-1-yl]phenyl]-2,3,6,7-tetrahydroazepine-1-carboxylate], for which the Kd was 4.94 nM. Then `C[C@@H]1CN(c2cc(F)c(-c3ccc4c(c3)ncn4C)cc2NC(=O)c2c[nH]c(=O)cc2C(F)(F)F)C[C@H](C)N1C` [Example 675, N-[4-fluoro-5-(1-methylbenzimidazol-5-yl)-2-[(3R,5S)-3,4,5-trimethylpiperazin-1-yl]phenyl]-6-oxo-4-(trifluoromethyl)-1H-pyridine-3-carboxamide], with 1.97 nM. Consider `C[C@@H]1CN(c2cc(F)c(-c3ccc4ncn(C)c4c3)cc2NC(=O)c2c[nH]c(=O)cc2C(F)(F)F)C[C@H](C)N1C` [Example 676, N-[4-fluoro-5-(3-methylbenzimidazol-5-yl)-2-[(3R,5S)-3,4,5-trimethylpiperazin-1-yl]phenyl]-6-oxo-4-(trifluoromethyl)-1H-pyridine-3-carboxamide], for which the Kd came out at 4.39 nM. `C[C@@H]1CN(c2cc(F)c(-c3cccc4scnc34)cc2NC(=O)c2c[nH]c(=O)cc2C(F)(F)F)C[C@H](C)N1C` [Example 677, N-[5-(1,3-benzothiazol-4-yl)-4-fluoro-2-[(3R,5S)-3,4,5-trimethylpiperazin-1-yl]phenyl]-6-oxo-4-(trifluoromethyl)-1H-pyridine-3-carboxamide]: the Kd came to 5.29 nM. On to `C[C@@H]1CN(c2cc(F)c(-c3ccc4scnc4c3)cc2NC(=O)c2c[nH]c(=O)cc2C(F)(F)F)C[C@H](C)N1C` [Example 678, N-[5-(1,3-benzothiazol-5-yl)-4-fluoro-2-[(3R,5S)-3,4,5-trimethylpiperazin-1-yl]phenyl]-6-oxo-4-(trifluoromethyl)-1H-pyridine-3-carboxamide], for which the Kd was found to be 3.26 nM. For the molecule `C[C@@H]1CN(c2cc(F)c(-c3ccc4ncsc4c3)cc2NC(=O)c2c[nH]c(=O)cc2C(F)(F)F)C[C@H](C)N1C` [Example 679, N-[5-(1,3-benzothiazol-6-yl)-4-fluoro-2-[(3R,5S)-3,4,5-trimethylpiperazin-1-yl]phenyl]-6-oxo-4-(trifluoromethyl)-1H-pyridine-3-carboxamide], the Kd turned out to be 2.97 nM. As for `C[C@@H]1CN(c2cc(F)c(-c3ccc4c(c3)ncn4C)cc2NC(=O)c2cn(C)c(=O)cc2C(F)F)C[C@H](C)N1C` [Example 680, 4-(difluoromethyl)-N-[4-fluoro-5-(1-methylbenzimidazol-5-yl)-2-[(3R,5S)-3,4,5-trimethylpiperazin-1-yl]phenyl]-1-methyl-6-oxopyridine-3-carboxamide], the Kd stood at 58.2 nM.

Consider `C[C@@H]1CN(c2cc(F)c(-c3ccc4ncn(C)c4c3)cc2NC(=O)c2cn(C)c(=O)cc2C(F)F)C[C@H](C)N1C` [Example 681, 4-(difluoromethyl)-N-[4-fluoro-5-(3-methylbenzimidazol-5-yl)-2-[(3R,5S)-3,4,5-trimethylpiperazin-1-yl]phenyl]-1-methyl-6-oxopyridine-3-carboxamide], for which the Kd came out at 39.3 nM. Then `C[C@@H]1CN(c2cc(F)c(-c3cccc4scnc34)cc2NC(=O)c2cn(C)c(=O)cc2C(F)F)C[C@H](C)N1C` [Example 682, N-[5-(1,3-benzothiazol-4-yl)-4-fluoro-2-[(3R,5S)-3,4,5-trimethylpiperazin-1-yl]phenyl]-4-(difluoromethyl)-1-methyl-6-oxopyridine-3-carboxamide], with 20.4 nM.
